Results published in US20220228172A1 (priority 2019, published 2022).
Entries after “also recorded” stand apart in the source; their conditions may differ.

Key:
Format in all cases: cell-based, vesicular stomatitis virus
VSV-L-Prot [1] = system: VSV-L-Prot
VSV-P-prot [2] = system: VSV-P-prot
VSV-P-prot [3] = system: VSV-P-prot; remark: listed apart in the source
[4] = system: VSV-GFP-Prot-L (VSV-Prot-Off)
VSV-L-Prot [5] = system: VSV-L-Prot; remark: listed apart in the source
[6] = system: standard recombinant VSV without P-prot control mechanism
VSV-ΔP-RFP = system: VSV-ΔP-RFP
VSV-GP-Luc-IL12-Prot-Off = system: VSV-GP-Luc-IL12-Prot-Off
VSV-GP-IL12 = system: VSV-GP-IL12
VSV-GP-TM-IL12-Prot-Off = system: VSV-GP-TM-IL12-Prot-Off
VSV-GP-IL12-Prot-Off = system: VSV-GP-IL12-Prot-Off

CC(C)CN(C[C@@H](O)[C@H](Cc1ccccc1)NC(=O)O[C@H]1CCOC1)S(=O)(=O)c1ccc(N)cc1 [amprenavir]
amprenavir dose at which VSV-L-prot activity started (VSV-L-Prot [1]): 100 nM | amprenavir dose of maximum VSV-L-prot activity (VSV-L-Prot [1]): 30 µM | viral gene expression (GFP signal) of VSV-P-prot (VSV-P-prot [2]): strong GFP signal within 24 hours in the presence but not in the absence | viral replication (plaque formation) of VSV-P-prot (VSV-P-prot [2]): protease inhibitor-dependent | VSV-P-prot activity at doses above the plateau (VSV-P-prot [3]): deteriorated at higher doses | amprenavir dose at which VSV-P-prot activity started (VSV-P-prot [3]): 100 nM | APV dose at which VSV-Prot-OFF activity started to decrease [4]: 30 nM | amprenavir concentration at which VSV-GFP-Prot-L activity started to decline [4]: 1 µM | amprenavir concentrations at which VSV-GFP-Prot-L activity was high [4]: 0 to 300 nM | effect on VSV-GFP-Prot-L activity (GFP expression, plaque assays) [4]: stop of virus activity | VSV-L-Prot replication in presence of protease inhibitor (VSV-L-Prot [5]): replicates to high titers in its presence | effect of amprenavir on viral replication of standard recombinant VSV [6]: not affected | RFP signal in VSV-ΔP-RFP infected cells (VSV-ΔP-RFP): only detectable in the presence of P196PR2 and a specific HIV protease inhibitor

COC(=O)N[C@H](C(=O)N[C@@H](Cc1ccccc1)[C@@H](O)CN(Cc1ccc(-c2ccccn2)cc1)NC(=O)[C@@H](NC(=O)OC)C(C)(C)C)C(C)(C)C [atazanavir]
virus titer of VSV-GP-Luc-IL12-Prot-Off with and without linker (VSV-GP-Luc-IL12-Prot-Off): inversely correlated | virus titer of VSV-GP-IL12 (VSV-GP-IL12): uneffected | virus titer of VSV-GP-TM-IL12-Prot-Off (-w/ol, -fl) (VSV-GP-TM-IL12-Prot-Off): inversely correlated

CC(C)(C)NC(=O)[C@@H]1CN(Cc2cccnc2)CCN1C[C@@H](O)C[C@@H](Cc1ccccc1)C(=O)N[C@H]1c2ccccc2C[C@H]1O [indinavir]
viral gene expression (GFP signal) of VSV-P-prot (VSV-P-prot [2]): facilitated | viral replication (plaque formation) of VSV-P-prot (VSV-P-prot [2]): facilitated | VSV-L-Prot replication in presence of protease inhibitor (VSV-L-Prot [5]): replicates to high titers in its presence

Cc1cccc(C)c1OCC(=O)N[C@@H](Cc1ccccc1)[C@@H](O)C[C@H](Cc1ccccc1)NC(=O)[C@H](C(C)C)N1CCCNC1=O [lopinavir]
regulation of VSV-P-prot (data not shown) (VSV-P-prot [2]; 10 μM): shown to regulate VSV-P-prot

CC(C)(C)NC(=O)[C@@H]1C[C@@H]2CCCC[C@@H]2CN1C[C@@H](O)[C@H](Cc1ccccc1)NC(=O)[C@H](CC(N)=O)NC(=O)c1ccc2ccccc2n1 [saquinavir]
viral gene expression (GFP signal) of VSV-P-prot (VSV-P-prot [2]): facilitated | viral replication (plaque formation) of VSV-P-prot (VSV-P-prot [2]): facilitated | virus titer of VSV-GP-IL12-Prot-Off with and without linker (VSV-GP-IL12-Prot-Off): dependent on the presence and concentration; also recorded: inversely correlated | IL12 expression in supernatant (ELISA) (VSV-GP-Luc-IL12-Prot-Off): inversely correlated | inhibition of VSV-GFP-Prot-L replication [4]: even stronger inhibition of virus replication than amprenavir; also recorded: strongest suppression of viral replication | VSV-L-Prot replication in presence of protease inhibitor (VSV-L-Prot [5]): replicates to high titers in its presence
